Measured values: PubChem BioAssay AID248 (DTP/NCI, 2004)
Several values for one entry are separate records, joined by “and”; a condition that tells them apart may be missing. Identical values can stand only once. Inconclusive results and toxic doses are left out. No stated cut-off is given here; in the data, active means T/C of 150% or more; inactive means T/C below 125%.

Test system: L1210 leukemia ip in BDF1 mice, survival T/C
Experiment: NCI In Vivo Anticancer Drug Screen. Data for tumor model L1210 Leukemia (intraperitoneal) in B6D2F1 (BDF1) mice
Settings: endpoint: mean survival time, higher = longer survival
In short: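 Transplantable tumor model; survival measured in treated vs vehicle control mice. Value = treated/control.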

[1] = dose: 100.0 mg/kg/injection, schedule: Q01DX001 (ip), vehicle: saline
[2] = dose: 200.0 mg/kg/injection, schedule: Q01DX001 (ip), vehicle: saline
[3] = dose: 400.0 mg/kg/injection, schedule: Q01DX001 (ip), vehicle: saline
[4] = dose: 50.0 mg/kg/injection, schedule: Q01DX009 (ip), vehicle: saline with Tween-80
[5] = dose: 100.0 mg/kg/injection, schedule: Q01DX009 (ip), vehicle: saline with Tween-80
[6] = dose: 100.0 mg/kg/injection, schedule: Q04DX003 (ip), vehicle: saline with Tween-80
[7] = dose: 200.0 mg/kg/injection, schedule: Q04DX003 (ip), vehicle: saline with Tween-80
[8] = dose: 400.0 mg/kg/injection, schedule: Q04DX003 (ip), vehicle: saline with Tween-80
[9] = dose: 100.0 mg/kg/injection, schedule: Q04DX003 (ip), vehicle: saline
[10] = dose: 200.0 mg/kg/injection, schedule: Q04DX003 (ip), vehicle: saline
[11] = dose: 400.0 mg/kg/injection, schedule: Q04DX003 (ip), vehicle: saline

Measured: T/C

Nc1nc2c(ncn2C2OC(CO)C(O)C2O)c(=O)n1N (stereo unspecified)
inactive: [1] 102 % of control | [2] 101 % of control | [3] 95 % of control

O=[N+]([O-])CC(O)c1ccccc1Cl (stereo unspecified)
inactive: [4] 95 % of control | [5] 98 % of control

O=C(O)/C=C\C(=O)Nc1nc(NC(=O)/C=C/C(=O)O)cc(=O)[nH]1
inactive: [1] 97 % of control | [2] 100 % of control | [3] 103 % of control

CCN(CC)C(=O)c1ccc[n+](CC(=O)Nc2ccc(Cl)cc2)c1
inactive: dose: 12.5 mg/kg/injection, schedule: Q01DX009 (ip), vehicle: saline with Tween-80 97 % of control | dose: 12.5 mg/kg/injection, schedule: Q04DX003 (ip), vehicle: saline with Tween-80 100 % of control | dose: 25.0 mg/kg/injection, schedule: Q01DX009 (ip), vehicle: saline with Tween-80 97 % of control | dose: 25.0 mg/kg/injection, schedule: Q04DX003 (ip), vehicle: saline with Tween-80 94 % of control | [4] 97 % of control | dose: 50.0 mg/kg/injection, schedule: Q04DX003 (ip), vehicle: saline with Tween-80 103 % of control

Cc1ccc(NC(=S)Nc2ccccc2)cc1Cl
inactive: dose: 100.0 mg/kg/injection, schedule: Q04DX002 (ip), vehicle: Klucel (hydroxypropylcellulose) (HPC) 106 % of control | dose: 200.0 mg/kg/injection, schedule: Q04DX002 (ip), vehicle: Klucel (hydroxypropylcellulose) (HPC) 100 % of control | dose: 400.0 mg/kg/injection, schedule: Q04DX002 (ip), vehicle: Klucel (hydroxypropylcellulose) (HPC) 100 % of control

O=C(O)CCC1CCC(=O)C1 (stereo unspecified)
inactive: dose: 50.0 mg/kg/injection, schedule: Q04DX002 (ip), vehicle: saline with Tween-80 102 % of control | dose: 100.0 mg/kg/injection, schedule: Q04DX002 (ip), vehicle: saline with Tween-80 106 % of control | dose: 200.0 mg/kg/injection, schedule: Q04DX002 (ip), vehicle: saline with Tween-80 98 % of control | dose: 400.0 mg/kg/injection, schedule: Q04DX002 (ip), vehicle: saline with Tween-80 95 % of control

COc1cc(/C=N/NC(=O)c2ccncc2)cc(OC)c1OC
inactive: [5] 112 % of control | [6] 111 % of control | dose: 200.0 mg/kg/injection, schedule: Q01DX009 (ip), vehicle: saline with Tween-80 101 % of control | [7] 118 % of control | dose: 400.0 mg/kg/injection, schedule: Q01DX009 (ip), vehicle: saline with Tween-80 98 % of control | [8] 100 % of control

CN(C)CCS(=O)(=O)O
inactive: [9] 104 % of control | [10] 104 % of control | [11] 104 % of control

N#C/C(=C1C=C/C(=N/O)C(Cl)=C/1)c1ccc(Cl)cc1
inactive: dose: 50.0 mg/kg/injection, schedule: Q01DX001 (ip), vehicle: carboxymethylcellulose (CMC) 96 % of control | dose: 100.0 mg/kg/injection, schedule: Q01DX001 (ip), vehicle: carboxymethylcellulose (CMC) 98 % of control | [6] 103 % of control | dose: 200.0 mg/kg/injection, schedule: Q01DX001 (ip), vehicle: carboxymethylcellulose (CMC) 93 % of control | [7] 97 % of control | dose: 400.0 mg/kg/injection, schedule: Q01DX001 (ip), vehicle: carboxymethylcellulose (CMC) 91 % of control | [8] 97 % of control

C=C(C)C1(CCCC)C(=O)NC(=S)NC1=O
inactive: dose: 75.0 mg/kg/injection, schedule: Q01DX001 (ip), vehicle: saline 102 % of control | dose: 150.0 mg/kg/injection, schedule: Q01DX001 (ip), vehicle: saline 95 % of control

CC(=O)CC(=O)NCc1cccnc1
inactive: dose: 50.0 mg/kg/injection, schedule: Q04DX003 (ip), vehicle: saline 106 % of control | dose: 100.0 mg/kg/injection, schedule: Q01DX009 (ip), vehicle: saline 93 % of control | [9] 97 % of control | dose: 200.0 mg/kg/injection, schedule: Q01DX009 (ip), vehicle: saline 104 % of control | [10] 94 % of control and 100 % of control | dose: 400.0 mg/kg/injection, schedule: Q01DX009 (ip), vehicle: saline 98 % of control | [11] 96 % of control
